Test results published in PMC11232401, “Characterization of antimalarial activity of artemisinin-based hybrid drugs” (Antimicrobial Agents and Chemotherapy, 2024).
Where two headings read alike, the source gives them in different places.

Experiments:
[1] = elimination half-life; cited from earlier work
[2] = tested on: heme (iron II)-initiated β-hematin formation; assay: β-hematin inhibitory activity under reducing condition (R-BHIA); assay type: biochemical; details: for IC50: mean (95% CI); for Fold changes, IC50 (10 minutes) to IC50 (120 minutes): R-BHIA
Procedure: The compounds were dissolved in DMSO and diluted in DMSO to six different concentrations (1.0–32 mM). Hemin (Fe^III[PPIX]Cl) (BioXtra, Sigma-Aldrich) was first dissolved in 0.1 M NaOH and then suspended in an 80:20 vol/vol mixture of DMSO and propionate buffer (0.1 M, pH 5.6) to a stock solution at 8 mM. Reduced glutathione (GSH) was dissolved in 0.1 M NaOH and then adjusted to 10 mM using propionate buffer (0.1 M, pH 5.6). […] Then, 20 µL of the drug was added, and the plates were incubated for 2 h at 37°C. The plastic film was removed after drug incubation, 160 µL propionate buffer (1.0 M, pH 5.6) was added, and plates were incubated for 18 h at 37°C. BHIA under the oxidizing condition (O-BHIA) was prepared in parallel without adding GSH. Controls included wells without drugs and wells containing PBS 1× instead of propionate buffer. Afterward, the plates were centrifuged, the supernatant was discarded, and the pellets of β-hematin crystals were washed twice with pure DMSO and then water. The resulting β-hematin crystals were then dissolved in 200 µL 0.1 M NaOH and diluted to a 1:8 ratio. Aliquots were then transferred into a new plate and read by UV-visible absorbance at […]. Percent of BHIA was calculated in comparison to untreated wells (no drugs), and IC50 was then calculated. Two independent experiments were performed using three replicates of each drug concentration ([46]).
(§1) Figure S6: A summary of IC50 values derived from β-hematin inhibitory activity (BHIA). Footnotes for table: ^[a,b^] Values are mean and 95% confidence interval of one experiment, each concentration in triplicate. ^[a] Using heme (Fe[II]PPIX[Cl]) as a starting reagent. ^[b] Using hematin (Fe[III]PPIX[OH]) as a starting reagent. ^[c] […] CQ = chloroquine. R-BHIA = reducing β-hematin inhibitory activity. O-BHIA = oxidizing β-hematin inhibitory activity.

[3] = set-up: method as in PMID 15124211; details: cited from earlier work
[4] = tested on: P. falciparum; assay: Parasite growth inhibition (cell potency); assay type: cell-based; details: Plasmodium falciparum; strain and exposure not stated at the place
[5] = tested on: hematin (iron III)-initiated β-hematin formation; assay: β-hematin inhibitory activity under oxidizing condition (O-BHIA); assay type: biochemical; details: hematin as starting reagent; mean (95% CI)
Procedure: The compounds were dissolved in DMSO and diluted in DMSO to six different concentrations (1.0–32 mM). Hemin (Fe^III[PPIX]Cl) (BioXtra, Sigma-Aldrich) was first dissolved in 0.1 M NaOH and then suspended in an 80:20 vol/vol mixture of DMSO and propionate buffer (0.1 M, pH 5.6) to a stock solution at 8 mM. Reduced glutathione (GSH) was dissolved in 0.1 M NaOH and then adjusted to 10 mM using propionate buffer (0.1 M, pH 5.6). For β-hematin inhibitory activity (BHIA) under the reducing condition (R-BHIA), hemin (10 µL) and GSH (10 µL) were distributed in a 96-well plate and homogenized, and the plates were sealed using a thin plastic film and incubated for 1 h at 37°C. Then, 20 µL of the drug was added, and the plates were incubated for 2 h at 37°C. The plastic film was removed after drug incubation, 160 µL propionate buffer (1.0 M, pH 5.6) was added, and plates were incubated for 18 h at 37°C. BHIA under the oxidizing condition (O-BHIA) was prepared in parallel without adding GSH. Controls included wells without drugs and wells containing PBS 1× instead of propionate buffer. Afterward, the plates were centrifuged, the supernatant was discarded, and the pellets of β-hematin crystals were washed twice with pure DMSO and then water. The resulting β-hematin crystals were then dissolved in 200 µL 0.1 M NaOH and diluted to a 1:8 ratio. Aliquots were then transferred into a new plate and read by UV-visible absorbance at […]. Percent of BHIA was calculated in comparison to untreated wells (no drugs), and IC50 was then calculated. Two independent experiments were performed using three replicates of each drug concentration ([46]).
as §1

[6] = tested on: Ring stages of NF54 strain P. falciparum; assay: Antiplasmodial activity of drug combinations (pLDH, isobologram/FIC); assay type: cell-based; details: Plasmodium falciparum, NF54, ring stages NF54; mean (95% CI); tested in parallel with the combination of the same line; read-out: IC50, Drugs alone
Procedure: The activity of the drug combinations against the P. falciparum NF54 strain was determined as described above. In each experiment, drugs were tested alone and in combination. Twofold serial dilutions of the drug solutions were made using fixed molar ratios of 1:1, 1:3, and 3:1 for each combination and using two technical replicates (ranging from 200 to 1.0 nM). Parasite growth was determined by the pLDH method, as described above. IC50 values for each drug alone or in combination were determined, and an isobologram analysis was performed by plotting the fractional inhibitory concentrations (FIC) for each combination and its component drugs separately. Individual FIC values were calculated as the IC50 of the drug combination divided by the IC50 of the drug in isolation. A dashed line was plotted to indicate any additive effect and distinguish antagonism (above the dashed line) from synergism (below the dashed line). Three independent experiments were performed, each one containing two replicates. Each experiment was used to represent an isobologram analysis [mean and 95% confidence interval (CI)].
Values represent one experiment; each concentration of drug combination was tested in technical duplicate. Black dashed line indicates ΣFIC = 1 (absolute additivity). […] FIC index <1 is synergistic, ~1 is additive, and >1 is antagonistic. Nondetrimental interactions are 0.25 <ΣFIC <1.25.
^[a] Values are the mean and 95% confidence interval of one experiment for each concentration of compounds in duplicate.

[7] = tested on: P. falciparum 3D7 strain; set-up: method as in PMID 31290221, PMID 34832911, PMID 38559731; details: asynchronous culture, SYBR Green I; read-out: IC50 (nM, median ± SEM) for P. falciparum 3D7 strain; cited from earlier work
[8] = tested on: P. berghei-infected mice; set-up: method as in PMID 31290221, PMID 34832911, PMID 38559731; details: Peters test; cited from earlier work
[9] = reductive step 10 minutes, read-out: IC50 (µM) values of R-BHIA using heme (iron II), 10 minutes
[10] = reductive step 120 minutes, read-out: IC50 (µM) values of R-BHIA using heme (iron II), 120 minutes

| SMILES | half-life (t1/2) [1] | IC50 [2, 9] | IC50 [2, 10] | plasma peak of DHA in patients [3] | IC50 [4] | IC50 [5] | IC50 [6] | IC50 [7] | In vivo parasitemia reduction (%) [8] | Fold changes, IC50 (10 minutes) to IC50 (120 minutes) [2] | Fold changes, IC50 (10 minutes) to IC50 (120 minutes) ([2]; listed as LH70 (1)) |
| --- | --- | --- | --- | --- | --- | --- | --- | --- | --- | --- | --- |
| C[C@H]1[C@@H](O)O[C@@H]2O[C@@]3(C)CC[C@H]4[C@H](C)CC[C@@H]1[C@@]24OO3 [DHA, dihydroartemisinin, reference compound] | 1 to 3 h | 262 µM | 161 µM | 700 nM | 0.005 µM | > 1000 µM | – | – | – | – | – |
| CC1CCC2C(C)C(OC(=O)CCC(=O)OCCNc3ccnc4cc(Cl)ccc34)OC3OC4(C)CCC1C32OO4 (centres unmarked) [Hybrid 2] | – | – | – | – | – | – | 0.0047 µM | 4.5 ± 0.5 nM | 89.4 ± 1.5% | – | – |
| COCCOCCOCCOCCn1c(-c2ccc(-n3cc(-c4ccc(OC5OC6OC7(C)CCC8C(C)CCC(C5C)C68OO7)cc4)nn3)cc2)nc2ccccc21 (centres unmarked) [Hybrid 1] | – | 609 µM | 284 µM | – | – | > 1000 µM | 0.0022 µM | 3 ± 0.2 nM | > 99% | 3 | 2.1 |
